Laboratory results taken from ChEMBL document CHEMBL5137054, “Xyloketal B Reverses Nutritional Hepatic Steatosis, Steatohepatitis, and Liver Fibrosis through Activation of the PPARα/PGC1α Signaling Pathway” (J Nat Prod, 2022).
Calls of active or inactive are those of the source. The rule behind the calls is not given here.

What was measured:
[1] = test system: Mus musculus; test: Reduction in hepatic steatosis in HFD-induced C57BL/6J mouse model of NAFL assessed as reduction in HFD-induced relative liver weight at 20 to 40 mg/kg/day, ip administered from week 7 to week 12; format: functional, organism-based; conditions: dose 20-40 mg/kg/day, time 6.0 weeks
[2] = test system: Mus musculus; test: Reduction in hepatic steatosis in HFD-induced C57BL/6J mouse model of NAFL assessed as reduction in number of lipid droplets in hepatocytes at 20 to 40 mg/kg/day, ip administered from week 7 to week 12 by H&E staining analysis; format: functional, organism-based; conditions: dose 20-40 mg/kg/day, time 6.0 weeks
[3] = test system: Mus musculus; test: Reduction in hepatic steatosis in HFD-induced C57BL/6J mouse model of NAFL assessed as reduction in size of lipid droplets in hepatocytes at 20 to 40 mg/kg/day, ip administered from week 7 to week 12 by H&E staining analysis; format: functional, organism-based; conditions: dose 20-40 mg/kg/day, time 6.0 weeks
[4] = test system: Mus musculus; test: Reduction in hepatic steatosis in HFD-induced C57BL/6J mouse model of NAFL assessed as reduction in serum ALT level at 20 to 40 mg/kg/day, ip administered from week 7 to week 12; format: functional, organism-based; conditions: dose 20-40 mg/kg/day, time 6.0 weeks
[5] = test system: Mus musculus; test: Reduction in hepatic steatosis in HFD-induced C57BL/6J mouse model of NAFL assessed as reduction in serum AST/ALT ratio at 20 to 40 mg/kg/day, ip administered from week 7 to week 12; format: functional, organism-based; conditions: dose 20-40 mg/kg/day, time 6.0 weeks
[6] = test system: Mus musculus; test: Reduction in hepatic steatosis in HFD-induced C57BL/6J mouse model of NAFL assessed as reduction in serum triglyceride level at 20 to 40 mg/kg/day, ip administered from week 7 to week 12; format: functional, organism-based; conditions: dose 20-40 mg/kg/day, time 6.0 weeks
[7] = test system: Mus musculus; test: Reduction in hepatic steatosis in HFD-induced C57BL/6J mouse model of NAFL assessed as reduction in serum LDL level at 20 to 40 mg/kg/day, ip administered from week 7 to week 12; format: functional, organism-based; conditions: dose 20-40 mg/kg/day, time 6.0 weeks
[8] = test system: Mus musculus; test: Reduction in hepatic steatosis in HFD-induced C57BL/6J mouse model of NAFL assessed as increase in serum ApoE level at 20 to 40 mg/kg/day, ip administered from week 7 to week 12; format: functional, organism-based; conditions: dose 20-40 mg/kg/day, time 6.0 weeks
[9] = Toxicity in C57BL/6J mouse assessed as effect on lipid droplets in hepatocytes at 40 mg/kg, ip by H&E staining analysis; format: organism-based; conditions: in vivo
[10] = Toxicity in C57BL/6J mouse assessed as effect on serum AST/ALT ratio at 40 mg/kg, ip; format: organism-based; conditions: in vivo
[11] = Toxicity in C57BL/6J mouse assessed as effect on serum triglyceride level at 40 mg/kg, ip; format: organism-based; conditions: in vivo
[12] = test system: Mus musculus; test: Upregulation of Acaa1a gene transcriptional level in HFD-induced C57BL/6J mouse model of NAFL at 20 to 40 mg/kg/day, ip administered from week 7 to week 12 by qRT-PCR analysis; format: functional, organism-based; conditions: dose 20-40 mg/kg/day, time 6.0 weeks
[13] = test system: Mus musculus; test: Upregulation of Acox2 gene transcriptional level in HFD-induced C57BL/6J mouse model of NAFL at 20 to 40 mg/kg/day, ip administered from week 7 to week 12 by qRT-PCR analysis; format: functional, organism-based; conditions: dose 20-40 mg/kg/day, time 6.0 weeks
[14] = test system: Mus musculus; test: Upregulation of Cyp4a10 gene transcriptional level in HFD-induced C57BL/6J mouse model of NAFL at 20 to 40 mg/kg/day, ip administered from week 7 to week 12 by qRT-PCR analysis; format: functional, organism-based; conditions: dose 20-40 mg/kg/day, time 6.0 weeks
[15] = test system: Mus musculus; test: Upregulation of peroxisomal bifunctional enzyme expression in liver of HFD-induced C57BL/6J mouse model of NAFL administered intraperitoneally from week 7 to week 12 by immunoblotting analysis; format: functional; conditions: dose 20-40 mg/kg/day, route ip, time 6.0 weeks, DDE = dose-dependent effect
[16] = test system: Mus musculus; test: Upregulation of carnitine O-palmitoyltransferase-1B enzyme expression in liver of HFD-induced C57BL/6J mouse model of NAFL at 15 mg/kg/day, ip administered from week 7 to week 12 by immunoblotting analysis; format: functional, organism-based; conditions: time 6.0 weeks
[17] = test system: Mus musculus; test: Upregulation of peroxisomal acyl-coenzyme A oxidase-1 enzyme expression in liver of HFD-induced C57BL/6J mouse model of NAFL at 15 mg/kg/day, ip administered from week 7 to week 12 by immunoblotting analysis; format: functional, organism-based; conditions: time 6.0 weeks
[18] = test system: Mus musculus; test: Upregulation of peroxisomal acyl-coenzyme A oxidase-2 enzyme expression in liver of HFD-induced C57BL/6J mouse model of NAFL at 15 mg/kg/day, ip administered from week 7 to week 12 by immunoblotting analysis; format: functional, organism-based; conditions: time 6.0 weeks
[19] = test system: Mus musculus; test: Upregulation of cytochrome P450-4A10 enzyme expression in liver of HFD-induced C57BL/6J mouse model of NAFL at 15 mg/kg/day, ip administered from week 7 to week 12 by immunoblotting analysis; format: functional, organism-based; conditions: time 6.0 weeks
[20] = test system: Mus musculus; test: In vivo activation of PPARalpha/PGC1alpha pathway in HFD-induced C57BL/6J mouse model of NAFL assessed as increase in PGC1alpha expression in liver administered intraperitoneally from week 7 to week 12 by immunoblotting analysis; format: functional, organism-based; conditions: dose 20-40 mg/kg/day, route ip, time 6.0 weeks
[21] = test system: Mus musculus; test: Anti-inflammatory activity against MCD-induced C57BL/6J mouse model of nonalcoholic steatohepatitis assessed as reduction in necroinflammation foci in liver at 20 to 40 mg/kg/day, ip administered from week 3 to week 4 by H&E staining based light microscopic analysis; format: functional, organism-based; conditions: dose 20-40 mg/kg/day, time 2.0 weeks
[22] = test system: Mus musculus; test: Anti-inflammatory activity against MCD-induced C57BL/6J mouse model of nonalcoholic steatohepatitis assessed as downregulation of TNFalpha expression in liver at 20 to 40 mg/kg/day, ip administered from week 3 to week 4 by immunoblotting analysis; format: functional, organism-based; conditions: dose 20-40 mg/kg/day, time 2.0 weeks
[23] = test system: Mus musculus; test: Anti-inflammatory activity against MCD-induced C57BL/6J mouse model of nonalcoholic steatohepatitis assessed as attenuation of VCAM1 expression in liver at 20 to 40 mg/kg/day, ip administered from week 3 to week 4 by immunoblotting analysis; format: functional, organism-based; conditions: dose 20-40 mg/kg/day, time 2.0 weeks
[24] = test system: Mus musculus; test: Anti-inflammatory activity against MCD-induced C57BL/6J mouse model of nonalcoholic steatohepatitis assessed as attenuation of ICAM1 expression in liver at 20 to 40 mg/kg/day, ip administered from week 3 to week 4 by immunoblotting analysis; format: functional, organism-based; conditions: dose 20-40 mg/kg/day, time 2.0 weeks
[25] = test system: Mus musculus; test: Antifibrotic activity against MCD-induced C57BL/6J mouse model of liver fibrosis assessed as reduction in number of collagenous fibers in liver at 20 to 40 mg/kg, ip administered from week 3 to week 6 by masson's trichrome staining based light microscopic analysis; format: functional, organism-based; conditions: dose 20-40 mg/kg, time 4.0 weeks
[26] = test system: Mus musculus; test: Antifibrotic activity against MCD-induced C57BL/6J mouse model of liver fibrosis assessed as reduction in collagen I level in liver at 20 to 40 mg/kg, ip administered from week 3 to week 6 by sirius red staining based light microscopic analysis; format: functional, organism-based; conditions: dose 20-40 mg/kg, time 4.0 weeks
[27] = test system: Mus musculus; test: Antifibrotic activity against MCD-induced C57BL/6J mouse model of liver fibrosis assessed as reduction in MMP3 level in liver administered intraperitoneally from week 3 to week 6 by immunoblotting analysis; format: functional, organism-based; conditions: dose 20-40 mg/kg, route ip, time 4.0 weeks, DDE = dose-dependent effect
[28] = test system: Mus musculus; test: Antifibrotic activity against MCD-induced C57BL/6J mouse model of liver fibrosis assessed as reduction in TGFbeta level in liver administered intraperitoneally from week 3 to week 6 by immunoblotting analysis; format: functional, organism-based; conditions: dose 20-40 mg/kg, route ip, time 4.0 weeks, DDE = dose-dependent effect

Activity [15]: Dde
Structure (SMILES): C[C@H]1CO[C@]2(C)Oc3cc(O)c4c(c3C[C@H]12)O[C@@]1(C)OC[C@H](C)[C@H]1C4
Activity [1]: Active
Activity [2]: Active
Activity [3]: Active
Activity [4]: Active
Activity [5]: Active
Activity [6]: Active
Activity [7]: Active
Activity [8]: Active
Activity [9]: Non-Toxic
Activity [10]: Non-Toxic
Activity [11]: Non-Toxic
Activity [12]: Active
Activity [13]: Active
Activity [14]: Active
Activity [16]: Active
Activity [17]: Active
Activity [18]: Active
Activity [19]: Active
Activity [20]: Active
Activity [21]: Active
Activity [22]: Active
Activity [23]: Active
Activity [24]: Active
Activity [25]: Active
Activity [26]: Active
Activity [27]: Dde
Activity [28]: Dde
